Earlier results, collected in patent US12390417B2, “Praziquantel formulations” (Villya LLC, priority 2020, dated 2025).
Converted amounts (≈) assume the structure as drawn.

Settings: in water; according to the Merck Index

O=C(C1CCCCC1)N1CC(=O)N2CCc3ccccc3C2C1 (racemic) [Praziquantel, (RS)-2-(Cyclohexylcarbonyl)-1,2,3,6,7,11b-hexahydro-4H-pyrazino[2,1-a]isoquinolin-4-one]
solubility: 400 mg/L (≈ 1280 µM)
